From ChEMBL document CHEMBL5584296, “Discovery of Novel Pyrimidine-Based Derivatives as Nav1.2 Inhibitors with Efficacy in Mouse Models of Epilepsy” (J Med Chem, 2024)

What was measured:
[1] = molecular target: T1, Sodium channel protein type 2 subunit alpha (Homo sapiens, UniProt Q99250); test: Inhibition of human Nav1.2 expressed in HEK293 cells assessed as test to control ratio at 1 uM measured after 5 mins by whole cell voltage clamp electrophysiological analysis; type: cell-based
Target sequence in this assay (Q99250 whole entry, looked up): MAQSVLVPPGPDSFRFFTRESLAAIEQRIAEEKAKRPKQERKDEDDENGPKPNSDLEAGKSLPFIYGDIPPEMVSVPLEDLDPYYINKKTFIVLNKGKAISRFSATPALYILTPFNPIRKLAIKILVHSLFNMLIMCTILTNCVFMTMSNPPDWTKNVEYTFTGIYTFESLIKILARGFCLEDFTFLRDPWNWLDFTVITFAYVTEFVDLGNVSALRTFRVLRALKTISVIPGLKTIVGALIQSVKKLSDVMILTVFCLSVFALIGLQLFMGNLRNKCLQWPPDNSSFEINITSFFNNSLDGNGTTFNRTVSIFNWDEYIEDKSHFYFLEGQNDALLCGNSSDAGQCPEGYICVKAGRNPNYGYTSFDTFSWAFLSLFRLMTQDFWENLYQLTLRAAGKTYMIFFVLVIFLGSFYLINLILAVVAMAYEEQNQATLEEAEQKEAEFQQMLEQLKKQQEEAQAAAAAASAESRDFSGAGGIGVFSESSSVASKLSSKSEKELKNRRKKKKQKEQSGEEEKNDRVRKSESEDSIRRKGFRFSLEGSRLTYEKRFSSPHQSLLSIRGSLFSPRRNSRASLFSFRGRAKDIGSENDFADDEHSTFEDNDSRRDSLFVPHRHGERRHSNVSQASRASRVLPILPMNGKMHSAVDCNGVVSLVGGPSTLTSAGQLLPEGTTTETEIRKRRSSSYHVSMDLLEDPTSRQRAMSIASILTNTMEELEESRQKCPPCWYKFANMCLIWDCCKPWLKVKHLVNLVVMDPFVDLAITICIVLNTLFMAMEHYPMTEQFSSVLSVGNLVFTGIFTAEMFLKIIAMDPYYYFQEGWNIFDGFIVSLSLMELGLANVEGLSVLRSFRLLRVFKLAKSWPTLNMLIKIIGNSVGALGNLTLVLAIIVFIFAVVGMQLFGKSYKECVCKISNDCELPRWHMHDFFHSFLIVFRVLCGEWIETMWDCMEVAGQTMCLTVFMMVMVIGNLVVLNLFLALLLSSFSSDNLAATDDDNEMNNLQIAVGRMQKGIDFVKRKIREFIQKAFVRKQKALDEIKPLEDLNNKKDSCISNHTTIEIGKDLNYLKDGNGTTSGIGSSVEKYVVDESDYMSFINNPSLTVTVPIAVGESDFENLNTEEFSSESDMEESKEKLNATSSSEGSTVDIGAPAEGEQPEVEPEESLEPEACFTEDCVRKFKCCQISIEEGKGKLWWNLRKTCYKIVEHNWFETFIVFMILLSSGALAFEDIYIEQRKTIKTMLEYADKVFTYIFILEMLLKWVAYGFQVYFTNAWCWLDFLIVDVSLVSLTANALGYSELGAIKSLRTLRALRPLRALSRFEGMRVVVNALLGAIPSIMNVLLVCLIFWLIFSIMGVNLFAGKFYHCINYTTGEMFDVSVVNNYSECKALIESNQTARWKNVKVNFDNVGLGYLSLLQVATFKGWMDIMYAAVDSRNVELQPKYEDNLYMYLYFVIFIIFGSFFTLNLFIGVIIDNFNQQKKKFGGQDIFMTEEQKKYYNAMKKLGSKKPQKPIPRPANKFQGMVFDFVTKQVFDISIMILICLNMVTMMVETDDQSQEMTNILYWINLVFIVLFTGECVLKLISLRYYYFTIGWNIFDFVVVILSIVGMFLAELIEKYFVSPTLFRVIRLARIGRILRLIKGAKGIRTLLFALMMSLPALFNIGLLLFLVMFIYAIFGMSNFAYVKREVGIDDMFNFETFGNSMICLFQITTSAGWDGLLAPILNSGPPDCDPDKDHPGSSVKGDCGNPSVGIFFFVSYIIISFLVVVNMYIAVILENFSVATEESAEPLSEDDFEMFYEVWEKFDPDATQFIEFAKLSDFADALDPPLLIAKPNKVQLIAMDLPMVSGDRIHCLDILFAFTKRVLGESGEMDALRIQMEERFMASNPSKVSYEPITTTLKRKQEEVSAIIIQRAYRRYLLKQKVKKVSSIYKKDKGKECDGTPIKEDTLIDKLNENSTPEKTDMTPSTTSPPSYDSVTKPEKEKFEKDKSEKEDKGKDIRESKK

[2] = molecular target: T1, Sodium channel protein type 2 subunit alpha; test: Inhibition of human Nav1.2 expressed in HEK293 cells assessed as test to control ratio at 10 uM measured after 5 mins by whole cell voltage clamp electrophysiological analysis; type: cell-based
Target sequence in this assay (Q99250 whole entry, looked up): as above

[3] = molecular target: T1, Sodium channel protein type 2 subunit alpha; test: Inhibition of human Nav1.2 expressed in HEK293 cells assessed as test to control ratio at 0.1 uM measured after 5 mins by whole cell voltage clamp electrophysiological analysis; type: cell-based
Target sequence in this assay (Q99250 whole entry, looked up): as above

[4] = molecular target: T1, Sodium channel protein type 2 subunit alpha; test: Inhibition of Nav1.2 (unknown origin) at 100 uM relative to control
Target sequence in this assay (Q99250 whole entry, looked up): as above

[5] = molecular target: T1, Sodium channel protein type 2 subunit alpha; test: Inhibition of Nav1.2 (unknown origin)
Target sequence in this assay (Q99250 whole entry): as the sequence (Q99250 whole entry, looked up) above

[6] = molecular target: T1, Sodium channel protein type 2 subunit alpha; test: Inhibition of human Nav1.2 expressed in HEK293 cells at 10 uM measured after 5 mins by whole cell voltage clamp electrophysiological analysis relative to control; type: cell-based
Target sequence in this assay (Q99250 whole entry, looked up): as above

Mus musculus [7] = test: Antiepileptic activity in 6 Hz(32 mA)-induced seizure male C57BL mouse model assessed as protection against seizure at 200 mg/kg, ip administered for 30 mins by epilepsy test; type: functional; settings: 0.5 h
Mus musculus [8] = test: Antiepileptic activity in MES-induced seizure male ICR mouse model assessed as protection against tonic hind limb extension at 300 mg/kg, ip measured after 30 mins relative to control; type: functional; settings: 0.5 h

Row | SMILES | T/C [1] | T/C [2] | T/C [3] | further results
1 | Nc1nc(-c2ccc(Oc3ccccc3)cc2)cc(N2CCCc3ccccc3C2)n1 | 0.79 | 0.46 | – | –
2 | Nc1nc(-c2ccc3c(c2)OCCC3)cc(N2CCCc3ccccc3C2)n1 | 0.72 | 0.07 | – | –
3 | Nc1nc(-c2cccc(OC(F)(F)F)c2)cc(N2CCCc3ccccc3C2)n1 | 0.81 | 0.07 | – | –
4 | COc1cccc(-c2cc(N3Cc4ccccc4C3)nc(N)n2)c1 | – | 0.75 | – | –
5 | COc1cccc(-c2cc(N3CCc4ccccc4C3)nc(N)n2)c1 | 0.35 | 0.13 | 0.68 | –
6 | COc1cccc(-c2cc(N3CCCc4ccccc4C3)nc(NS(=O)(=O)c3ccc(F)cc3)n2)c1 | 0.95 | 0.36 | 0.95 | –
7 | CC(C)Oc1ccc(-c2cc(N3CCCc4ccccc4C3)nc(N)n2)cc1 | 0.87 | 0.37 | – | –
8 | O=C(CC(c1ccccc1)c1ccccc1)N1CCN(CCO)CC1 | – | – | – | inhibition [4]: 59.1%
9 | COc1cccc(-c2cc(NCCc3ccc(OC)c(OC)c3)nc(N)n2)c1 | 0.35 | 0.15 | 0.61 | –
10 | Nc1cnc(-c2cc(Cl)cc(Cl)c2Cl)c(N)n1 [ELPETRIGINE] | – | – | – | IC50 [5]: 6 µM
11 | CCCc1ccc(S(=O)(=O)Nc2nc(-c3cccc(OC)c3)cc(N3CCCc4ccccc4C3)n2)cc1 | 0.12 | 0.08 | 0.86 | inhibition [6]: 92%
12 | Nc1nc(-c2ccc(OC3CCCCO3)cc2)cc(N2CCCc3ccccc3C2)n1 (stereo not drawn) | 0.76 | 0.14 | – | –
13 | COc1cccc(-c2cc(N3CCCc4ccc(C)cc4C3)nc(-c3ccccc3)n2)c1 | – | 0.91 | – | –
14 | COc1cccc(-c2cc(N3CCCc4ccc(C)cc4C3)ncn2)c1 | 0.43 | 0.13 | 0.8 | –
15 | COc1cccc(-c2cc(N3CCCc4cc(F)ccc4C3)nc(N)n2)c1 | 0.03 | 0.04 | 0.39 | –
16 | COc1cccc(-c2cc(N3CCCc4ccc(C)cc4C3)nc(OC)n2)c1 | 0.43 | 0.11 | 0.88 | –
17 | Nc1nc(-c2cccc3ccccc23)cc(N2CCCc3ccccc3C2)n1 | 0.85 | 0.08 | – | –
18 | COc1cccc(-c2nc(N)nc(N3CCCc4ccc(C)cc4C3)c2F)c1 | 0.19 | 0.01 | 0.88 | –
19 | COc1cccc(-c2cc(N3CCCc4ccc(C)cc4C3)nc(S(C)(=O)=O)n2)c1 | – | 0.81 | – | –
20 | CN1C[C@H](CNC(=O)OCc2ccccc2)C[C@@H]2c3cccc4c3c(cn4C)C[C@H]21 | – | 0.01 | – | –
21 | COc1cccc(-c2cc(N3CCCc4ccc(F)cc4C3)nc(N)n2)c1 | 0.03 | 0 | 0.84 | –
22 | COc1cccc(-c2cc(N3CCCc4ccc(C)cc4C3)nc(SC)n2)c1 | – | 0.66 | – | –

Row | SMILES | T/C [1] | T/C [2] | T/C [3] | further results
23 | COc1cccc(-c2cc(NCCc3ccc4c(c3)OCO4)nc(N)n2)c1 | 0.34 | 0.05 | 0.86 | –
24 | Nc1nc(-c2ccc(F)cc2)cc(N2CCCc3ccccc3C2)n1 | 0.46 | 0.18 | 0.9 | –
25 | COc1cccc(-c2cc(NCc3ccc(OC)c(OC)c3)nc(N)n2)c1 | 0.4 | 0.24 | 0.7 | inhibition [6]: 76%
26 | COc1cccc(-c2cc(N3CC4CC(C3)c3ccccc34)nc(NS(=O)(=O)c3ccc(C)cc3C)n2)c1 | 0.84 | 0.45 | – | –
27 | COc1cccc(-c2cc(N3CCc4nc(Cl)ccc4C3)nc(N)n2)c1 | 0.71 | 0.18 | 0.89 | –
28 | COc1cccc(-c2cc(N3CC4CC(C3)c3ccccc34)nc(NS(=O)(=O)c3cccc(C)c3)n2)c1 | 0.68 | 0.33 | – | –
29 | COc1cccc(-c2cc(N3CCc4nc(C)sc4C3)nc(N)n2)c1 | – | 0.79 | – | –
30 | COc1cccc(-c2cc(N3CCCc4cc(F)c(F)cc4C3)nc(N)n2)c1 | 0.65 | 0.43 | – | –
31 | Nc1nc(-c2ccc3c(c2)CCO3)cc(N2CCCc3ccccc3C2)n1 | 0.82 | 0.07 | – | –
32 | COc1cccc(-c2cc(N3CCCc4ccc(C)cc4C3)nc(C#N)n2)c1 | – | 0.86 | – | –
33 | Nc1nc(-c2cccn2C2CCCCO2)cc(N2CCCc3ccccc3C2)n1 (stereo not drawn) | 0.77 | 0.19 | – | –
34 | COc1cccc(-c2cc(N3CCCc4ccccc4C3)nc(NS(=O)(=O)c3ccc(Cl)cc3)n2)c1 | – | 0.65 | – | –
35 | COc1cccc(-c2cc(N3CCc4cc(OC)c(OC)cc4C3)nc(N)n2)c1 | 0.35 | 0.01 | 0.67 | inhibition [6]: 99%
36 | CCCC(CCC)C(=O)O [VALPROIC ACID] | – | – | – | Activity (Mus musculus [7]): 100%; Activity (Mus musculus [8]): 100%
37 | COc1cccc(-c2cc(N3CCCc4ccc(OCc5ccccc5)cc4C3)nc(N)n2)c1 | 0.11 | 0.02 | 0.77 | –
38 | COc1cccc(-c2cc(N3CCCc4c(cc(OC)cc4OC)C3)nc(N)n2)c1 | 0.53 | 0.14 | – | –
39 | COc1cccc(-c2cc(N3CC4CC(C3)c3ccccc34)nc(NS(=O)(=O)c3ccc(F)cc3)n2)c1 | 0.56 | 0.28 | – | –
40 | COc1cccc(-c2cc(N3CCC4(CCOCC4)C3)nc(N)n2)c1 | 0.94 | 0.57 | 0.97 | –
41 | Cc1cccc(-c2cc(N3CCCc4ccccc4C3)nc(N)n2)c1 | 0.24 | 0.03 | 0.85 | –
42 | COc1cccc(-c2cc(N3CC4CC(C3)c3ccccc34)nc(NS(=O)(=O)c3ccc(C)cc3)n2)c1 | 0.71 | 0.31 | – | –
43 | Cc1cccc(C)c1OCCCNCc1cc(C(C)(C)C)c(O)c(C(C)(C)C)c1 | – | – | – | IC50 [5]: 0.18 µM
44 | COc1cccc(-c2cc(N3CCC(C)c4ccccc4C3)nc(N)n2)c1 (stereo not drawn) | 0.12 | 0.11 | 0.95 | –
